# Assay results published in patent US20250223277A1, “COMPLEMENT FACTOR B INHIBITORS AND USES THEREOF” (Novartis AG, priority 2022, published 2025).
# Molecular target: Recombinant human factor B (Homo sapiens (Human), UniProt P00751)
# Assay: Human Complement Factor B TR-FRET Assay
# Format: binding
# Conditions: assay of Biological Example 2; read-out: hFactor-B TR-FRET Qualified IC50
# Method: The time-gated decrease in fluorescence intensity related to the competition between labeled and unlabeled factor B ligands was recorded at both 620 nm and 665 nm, 70 us after excitation at 337 nm using a microplate spectrofluorimeter.
# Sequence of Recombinant human factor B (P00751 26-764): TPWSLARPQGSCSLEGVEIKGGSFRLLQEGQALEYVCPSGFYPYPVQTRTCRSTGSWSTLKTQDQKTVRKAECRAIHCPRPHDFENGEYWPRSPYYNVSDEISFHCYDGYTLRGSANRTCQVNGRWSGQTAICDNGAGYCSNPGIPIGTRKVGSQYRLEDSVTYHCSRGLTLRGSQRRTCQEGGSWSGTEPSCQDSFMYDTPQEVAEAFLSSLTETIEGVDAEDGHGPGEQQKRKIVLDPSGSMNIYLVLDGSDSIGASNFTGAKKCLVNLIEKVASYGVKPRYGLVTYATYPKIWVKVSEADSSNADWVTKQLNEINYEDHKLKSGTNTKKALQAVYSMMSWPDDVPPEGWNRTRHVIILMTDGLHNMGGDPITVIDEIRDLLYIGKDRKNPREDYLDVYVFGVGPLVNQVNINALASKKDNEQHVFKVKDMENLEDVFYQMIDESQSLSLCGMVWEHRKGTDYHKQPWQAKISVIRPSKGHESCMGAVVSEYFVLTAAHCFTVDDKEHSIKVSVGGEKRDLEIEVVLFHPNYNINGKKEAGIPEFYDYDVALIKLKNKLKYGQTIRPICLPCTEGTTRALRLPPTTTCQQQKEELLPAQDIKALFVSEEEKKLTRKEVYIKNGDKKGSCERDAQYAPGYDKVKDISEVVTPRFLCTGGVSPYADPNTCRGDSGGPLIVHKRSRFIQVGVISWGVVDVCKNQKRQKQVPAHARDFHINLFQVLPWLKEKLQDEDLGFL
row,IC50,Structure (SMILES)
1,< 30000 nM,"Cc1cc(C)c2[nH]ccc2c1C[C@@H]1CN(CC(F)(F)F)C[C@H]1c1ccc(C(=O)O)cc1 (racemic) [Ex-26, 4-(4-((5,7-dimethyl-1H-indol-4-yl)methyl)-1-(2,2,2-trifluoroethyl)pyrrolidin-3-yl)benzoic acid]"
2,< 100 nM,"Cc1cc(C)c2[nH]ccc2c1C[C@@H]1CCN(CC(F)(F)F)C[C@H]1c1ccc(C(=O)O)cc1 [Ex-1, 4-((3R,4R)-4-((5,7-dimethyl-1H-indol-4-yl)methyl)-1-(2,2,2-trifluoroethyl)piperidin-3-yl)benzoic acid]"
3,< 30000 nM,"Cc1cc(C)c2[nH]ccc2c1C[C@H]1CCN(CC(F)(F)F)C[C@@H]1c1ccc(C(=O)O)cc1 [Ex-2, 4-((3S,4S)-4-((5,7-dimethyl-1H-indol-4-yl)methyl)-1-(2,2,2-trifluoro-ethyl)piperidin-3-yl)benzoic acid]"
4,< 100 nM,"Cc1cc(C2CC2)c(C[C@@H]2CCN(CC(F)(F)F)C[C@H]2c2ccc(C(=O)O)cc2)c2cc[nH]c12 [Ex-3, 4-((3R,4R)-4-((5-cyclopropyl-7-methyl-1H-indol-4-yl)methyl)-1-(2,2,2-trifluoroethyl)piperidin-3-yl)benzoic acid]"
5,< 30000 nM,Cc1cc(C2CC2)c(C[C@H]2CCN(CC(F)(F)F)C[C@@H]2c2ccc(C(=O)O)cc2)c2cc[nH]c12 [Ex-4]
6,< 1000 nM,"COc1cc(C)c2[nH]ccc2c1C[C@@H]1CCN(CC(F)(F)F)C[C@H]1c1ccc(C(=O)O)cc1 [Ex-5, 4-((3R,4R)-4-((5-methoxy-7-methyl-1H-indol-4-yl)methyl)-1-(2,2,2-trifluoroethyl)piperidin-3-yl)benzoic acid]"
7,< 30000 nM,COc1cc(C)c2[nH]ccc2c1C[C@H]1CCN(CC(F)(F)F)C[C@@H]1c1ccc(C(=O)O)cc1 [Ex-6]
8,< 100 nM,"Cc1cc(C)c2[nH]ccc2c1C[C@@H]1CCN(C)C[C@H]1c1ccc(C(=O)O)cc1 [Ex-8, 4-((3R,4R)-4-((5,7-dimethyl-1H-indol-4-yl)methyl)-1-methylpiperidin-3-yl)benzoic acid]"
9,< 30000 nM,Cc1cc(C)c2[nH]ccc2c1C[C@H]1CCN(C)C[C@@H]1c1ccc(C(=O)O)cc1 [Ex-9]
10,< 100 nM,"CCN1CC[C@@H](Cc2c(C)cc(C)c3[nH]ccc23)[C@H](c2ccc(C(=O)O)cc2)C1 [Ex-10, 4-((3R,4R)-4-((5,7-dimethyl-1H-indol-4-yl)methyl)-1-ethylpiperidin-3-yl)benzoic acid]"
11,< 100 nM,"Cc1cc(C)c2[nH]ccc2c1C[C@@H]1CCN(CCF)C[C@H]1c1ccc(C(=O)O)cc1 [Ex-12, 4-((3R,4R)-4-((5,7-dimethyl-1H-indol-4-yl)methyl)-1-(2-fluoroethyl)piperidin-3-yl)benzoic acid]"
12,< 100 nM,"COCCN1CC[C@@H](Cc2c(C)cc(C)c3[nH]ccc23)[C@H](c2ccc(C(=O)O)cc2)C1 [Ex-14, 4-((3R,4R)-4-((5,7-dimethyl-1H-indol-4-yl)methyl)-1-(2-methoxyethyl)piperidin-3-yl)benzoic acid]"
13,< 1000 nM,"Cc1cc(C)c2[nH]ccc2c1C[C@@H]1CCN(CC(C)(C)O)C[C@H]1c1ccc(C(=O)O)cc1 [Ex-15, 4-((3R,4R)-4-((5,7-dimethyl-1H-indol-4-yl)methyl)-1-(2-hydroxy-2-methylpropyl)piperidin-3-yl)benzoic acid]"

row,Structure (SMILES),IC50
1,"Cc1cc(C)c2[nH]ccc2c1C[C@@H]1CN(C)C[C@H]1c1ccc(C(N)=O)cc1 (racemic) [Ex-58, Racemic 4-((3R*,4S*)-4-((5,7-dimethyl-1H-indol-4-yl)methyl)-1-methylpyrrolidin-3-yl)benzamide]",< 30000 nM
2,"CCN1C[C@@H](Cc2c(C3CC3)cc(C)c3[nH]ccc23)[C@H](c2ccc(-c3nnn[nH]3)cc2)C1 (racemic) [Ex-61, 4-((4-(4-(1H-tetrazol-5-yl)phenyl)-1-ethylpyrrolidin-3-yl)methyl)-5-cyclopropyl-7-methyl-1H-indole]",< 100 nM
3,"Cc1cc(C)c2[nH]ccc2c1C[C@@H]1CCN(CC2(F)COC2)C[C@H]1c1ccc(C(=O)O)cc1 [Ex-17, 4-((3R,4R)-4-((5,7-dimethyl-1H-indol-4-yl)methyl)-1-((3-fluorooxetan-3-yl)methyl)piperidin-3-yl)benzoic acid]",< 100 nM
